Assay results from the NIST ThermoML archive (doi:10.1021/je300873x).
± gives the expanded uncertainty stated by the source.

Experiment: mn = molality of the nth substance listed, in mol/kg
Details: for surface tension liquid-gas: Pendant drop shape; for electrical conductivity: Liquid, Digital conductivity meter

CCCCCCCCCCCCCC[N+](C)(C)CCO.[Br-] [N-tetradecyl-hydroxyethyl-dimethyl ammonium bromide] + O
Details | electrical conductivity [S/m] | surface tension liquid-gas [mN/m]
298.15 K, m1 = 0.0003 | – | 66.02 ± 0.59
298.15 K, m1 = 0.0006 | – | 60.97 ± 0.55
298.15 K, m1 = 0.00081 | – | 58.35 ± 0.53
298.15 K, m1 = 0.00101 | – | 55.52 ± 0.51
298.15 K, m1 = 0.00151 | – | 49.52 ± 0.46
298.15 K, m1 = 0.00201 | – | 45.03 ± 0.43
298.15 K, m1 = 0.00252 | – | 41.15 ± 0.4
298.15 K, m1 = 0.00258 | 0.0207 ± 0.0001 | –
298.15 K, m1 = 0.00268 | 0.0215 ± 0.0001 | –
298.15 K, m1 = 0.00279 | 0.0223 ± 0.0001 | –
298.15 K, m1 = 0.00291 | 0.0232 ± 0.0001 | –
298.15 K, m1 = 0.00302 | – | 38.35 ± 0.38
298.15 K, m1 = 0.00303 | 0.0241 ± 0.0001 | –
298.15 K, m1 = 0.00317 | 0.0251 ± 0.0001 | –
298.15 K, m1 = 0.00332 | 0.0261 ± 0.0001 | –
298.15 K, m1 = 0.00349 | 0.027 ± 0.0001 | –
298.15 K, m1 = 0.00367 | 0.0275 ± 0.0001 | –
298.15 K, m1 = 0.00388 | 0.028 ± 0.0001 | –
298.15 K, m1 = 0.00403 | – | 37.57 ± 0.37
298.15 K, m1 = 0.00411 | 0.0285 ± 0.0001 | –
298.15 K, m1 = 0.00436 | 0.029 ± 0.0001 | –
298.15 K, m1 = 0.00465 | 0.0296 ± 0.0001 | –
298.15 K, m1 = 0.00499 | 0.0302 ± 0.0001 | –
298.15 K, m1 = 0.00503 | – | 37.62 ± 0.37
298.15 K, m1 = 0.00537 | 0.0309 ± 0.0001 | –
298.15 K, m1 = 0.00582 | 0.0318 ± 0.0001 | –
298.15 K, m1 = 0.00604 | – | 37.61 ± 0.37
298.15 K, m1 = 0.00635 | 0.0328 ± 0.0001 | –
298.15 K, m1 = 0.00698 | 0.034 ± 0.0001 | –
298.15 K, m1 = 0.00806 | – | 37.61 ± 0.37
303.15 K, m1 = 0.00258 | 0.0231 ± 0.0001 | –
303.15 K, m1 = 0.00268 | 0.024 ± 0.0001 | –
303.15 K, m1 = 0.00279 | 0.0249 ± 0.0001 | –
303.15 K, m1 = 0.0029 | 0.026 ± 0.0001 | –
303.15 K, m1 = 0.00303 | 0.0269 ± 0.0001 | –
303.15 K, m1 = 0.00317 | 0.028 ± 0.0001 | –
303.15 K, m1 = 0.00332 | 0.0292 ± 0.0001 | –
303.15 K, m1 = 0.00348 | 0.0303 ± 0.0001 | –
303.15 K, m1 = 0.00367 | 0.031 ± 0.0001 | –
303.15 K, m1 = 0.00387 | 0.0316 ± 0.0001 | –
303.15 K, m1 = 0.0041 | 0.0322 ± 0.0001 | –
303.15 K, m1 = 0.00436 | 0.0328 ± 0.0001 | –
303.15 K, m1 = 0.00465 | 0.0335 ± 0.0001 | –
303.15 K, m1 = 0.00498 | 0.0342 ± 0.0001 | –
303.15 K, m1 = 0.00536 | 0.035 ± 0.0001 | –
303.15 K, m1 = 0.00581 | 0.036 ± 0.0001 | –
303.15 K, m1 = 0.00634 | 0.0372 ± 0.0001 | –
303.15 K, m1 = 0.00697 | 0.0385 ± 0.0001 | –
308.15 K, m1 = 0.00258 | 0.0254 ± 0.0001 | –
308.15 K, m1 = 0.00268 | 0.0263 ± 0.0001 | –
308.15 K, m1 = 0.00278 | 0.0274 ± 0.0001 | –
308.15 K, m1 = 0.0029 | 0.0283 ± 0.0001 | –
308.15 K, m1 = 0.00303 | 0.0295 ± 0.0001 | –
308.15 K, m1 = 0.00316 | 0.0308 ± 0.0001 | –
308.15 K, m1 = 0.00331 | 0.0321 ± 0.0001 | –
308.15 K, m1 = 0.00348 | 0.0334 ± 0.0001 | –
308.15 K, m1 = 0.00366 | 0.0346 ± 0.0001 | –
308.15 K, m1 = 0.00387 | 0.0352 ± 0.0001 | –
308.15 K, m1 = 0.00409 | 0.0359 ± 0.0001 | –
308.15 K, m1 = 0.00435 | 0.0366 ± 0.0001 | –
308.15 K, m1 = 0.00464 | 0.0374 ± 0.0001 | –
308.15 K, m1 = 0.00497 | 0.0383 ± 0.0001 | –
308.15 K, m1 = 0.00535 | 0.0393 ± 0.0001 | –
308.15 K, m1 = 0.0058 | 0.0404 ± 0.0001 | –
308.15 K, m1 = 0.00633 | 0.0418 ± 0.0001 | –
308.15 K, m1 = 0.00696 | 0.0435 ± 0.0001 | –
313.15 K, m1 = 0.00257 | 0.0278 ± 0.0001 | –
313.15 K, m1 = 0.00267 | 0.0287 ± 0.0001 | –
313.15 K, m1 = 0.00278 | 0.0298 ± 0.0001 | –
313.15 K, m1 = 0.00289 | 0.0311 ± 0.0001 | –
313.15 K, m1 = 0.00302 | 0.0325 ± 0.0001 | –
313.15 K, m1 = 0.00316 | 0.0339 ± 0.0001 | –
313.15 K, m1 = 0.00331 | 0.0354 ± 0.0001 | –
313.15 K, m1 = 0.00347 | 0.037 ± 0.0001 | –
313.15 K, m1 = 0.00366 | 0.0385 ± 0.0001 | –
313.15 K, m1 = 0.00386 | 0.0395 ± 0.0001 | –
313.15 K, m1 = 0.00409 | 0.0405 ± 0.0001 | –
313.15 K, m1 = 0.00434 | 0.0414 ± 0.0001 | –
313.15 K, m1 = 0.00463 | 0.0421 ± 0.0001 | –
313.15 K, m1 = 0.00496 | 0.0431 ± 0.0001 | –
313.15 K, m1 = 0.00534 | 0.0441 ± 0.0001 | –
313.15 K, m1 = 0.00579 | 0.0455 ± 0.0001 | –
313.15 K, m1 = 0.00631 | 0.0472 ± 0.0001 | –
313.15 K, m1 = 0.00695 | 0.0491 ± 0.0001 | –
318.15 K, m1 = 0.00257 | 0.0307 ± 0.0001 | –
318.15 K, m1 = 0.00267 | 0.0317 ± 0.0001 | –
318.15 K, m1 = 0.00277 | 0.0329 ± 0.0001 | –
318.15 K, m1 = 0.00289 | 0.0343 ± 0.0001 | –
318.15 K, m1 = 0.00301 | 0.0356 ± 0.0001 | –
318.15 K, m1 = 0.00315 | 0.037 ± 0.0001 | –
318.15 K, m1 = 0.0033 | 0.0385 ± 0.0001 | –
318.15 K, m1 = 0.00347 | 0.0407 ± 0.0001 | –
318.15 K, m1 = 0.00365 | 0.0426 ± 0.0001 | –
318.15 K, m1 = 0.00385 | 0.044 ± 0.0001 | –
318.15 K, m1 = 0.00408 | 0.0454 ± 0.0001 | –
318.15 K, m1 = 0.00433 | 0.0465 ± 0.0001 | –
318.15 K, m1 = 0.00462 | 0.0475 ± 0.0001 | –
318.15 K, m1 = 0.00495 | 0.0488 ± 0.0001 | –
318.15 K, m1 = 0.00533 | 0.0499 ± 0.0001 | –
318.15 K, m1 = 0.00578 | 0.0514 ± 0.0001 | –
318.15 K, m1 = 0.0063 | 0.0531 ± 0.0001 | –
318.15 K, m1 = 0.00693 | 0.0552 ± 0.0001 | –
323.15 K, m1 = 0.00256 | 0.0332 ± 0.0001 | –
323.15 K, m1 = 0.00266 | 0.0345 ± 0.0001 | –
323.15 K, m1 = 0.00277 | 0.0357 ± 0.0001 | –
323.15 K, m1 = 0.00288 | 0.0372 ± 0.0001 | –
323.15 K, m1 = 0.00301 | 0.0389 ± 0.0001 | –
323.15 K, m1 = 0.00314 | 0.0404 ± 0.0001 | –
323.15 K, m1 = 0.00329 | 0.0423 ± 0.0001 | –
323.15 K, m1 = 0.00346 | 0.0442 ± 0.0001 | –
323.15 K, m1 = 0.00364 | 0.0465 ± 0.0001 | –
323.15 K, m1 = 0.00384 | 0.0487 ± 0.0001 | –
323.15 K, m1 = 0.00407 | 0.0506 ± 0.0001 | –
323.15 K, m1 = 0.00432 | 0.0522 ± 0.0001 | –
323.15 K, m1 = 0.00461 | 0.0535 ± 0.0001 | –
323.15 K, m1 = 0.00494 | 0.0547 ± 0.0001 | –
323.15 K, m1 = 0.00532 | 0.0563 ± 0.0001 | –
323.15 K, m1 = 0.00576 | 0.0581 ± 0.0001 | –
323.15 K, m1 = 0.00629 | 0.0598 ± 0.0001 | –
323.15 K, m1 = 0.00692 | 0.062 ± 0.0001 | –
